Measured values from patent publication US8188128B2, “Opioid receptor subtype-selective agents” (The University of Medicine and Dentistry of New Jersey, priority 2005, dated 2012).
Read-outs that look alike come from different tables or passages of the source.

Experiments:
δ-receptor [1] = target: T1, δ-receptor (Mus musculus, UniProt P32300); details: literature values for comparison compounds; cited from earlier work
delta receptor = target: T2, delta receptor (Mus musculus, UniProt P32300); assay: Opioid receptor binding assay, δ, [3H]DPDPE, HEK 293 cell membranes; parameters: species or system rat; details: for Selectivity κ/δ / Selectivity μ/δ: ratio of IC50 values; for IC50: compounds of Formula II, Table III
T2 construct: expressed in transfected cells
T2 sequence (P32300 whole entry): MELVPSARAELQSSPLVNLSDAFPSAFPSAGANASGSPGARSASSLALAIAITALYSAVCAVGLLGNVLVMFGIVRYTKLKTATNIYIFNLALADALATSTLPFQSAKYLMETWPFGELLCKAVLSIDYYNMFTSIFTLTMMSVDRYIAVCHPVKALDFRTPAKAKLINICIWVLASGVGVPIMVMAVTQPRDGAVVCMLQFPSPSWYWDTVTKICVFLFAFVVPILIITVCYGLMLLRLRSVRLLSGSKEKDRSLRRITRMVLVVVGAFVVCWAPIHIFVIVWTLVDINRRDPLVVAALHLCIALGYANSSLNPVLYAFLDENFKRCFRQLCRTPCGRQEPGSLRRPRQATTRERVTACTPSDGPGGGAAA
Procedure: (§1) Receptor binding assay: Cell membrane preparations were obtained from HEK 293-stable transfectants expressing either the murine δ or μ or the human κ receptor. Opioid receptor binding assays were conducted in duplicate on membrane preparations that had been resuspended in 50 mM Tris-HCl, pH 7.5, utilizing [^3H]DPDPE, [^3H]DAMGO and [^3H]U69593 as radiologand for δ, μ, and κ respectively and 10 μM cyclazocine to define non-specific binding. Following a 1 hour incubation on ice, binding assays were terminated by filtration through Whatman GF/B filters. Filters were soaked in Ecoscint liquid scintillation solution (National Diagnostics, Manville, N.J.) and filter-bound radioactivity was measured using a Packard Tri-Carb 2100 TR liquid scintillation analyzer. Receptor binding data was analyzed by non-linear regression of saturation and competition curves using Prisim 3.0 software (GraphPad Software, San Diego, Calif.). Protein concentrations were determined with the Bio-Rad protein using bovine serum albumin as the standard.

human kappa receptor = target: T3, human kappa receptor (Homo sapiens, UniProt P41145); assay: Opioid receptor binding assay, κ, [3H]U69593, HEK 293 cell membranes
T3 construct: expressed in transfected cells
T3 sequence (P41145 whole entry): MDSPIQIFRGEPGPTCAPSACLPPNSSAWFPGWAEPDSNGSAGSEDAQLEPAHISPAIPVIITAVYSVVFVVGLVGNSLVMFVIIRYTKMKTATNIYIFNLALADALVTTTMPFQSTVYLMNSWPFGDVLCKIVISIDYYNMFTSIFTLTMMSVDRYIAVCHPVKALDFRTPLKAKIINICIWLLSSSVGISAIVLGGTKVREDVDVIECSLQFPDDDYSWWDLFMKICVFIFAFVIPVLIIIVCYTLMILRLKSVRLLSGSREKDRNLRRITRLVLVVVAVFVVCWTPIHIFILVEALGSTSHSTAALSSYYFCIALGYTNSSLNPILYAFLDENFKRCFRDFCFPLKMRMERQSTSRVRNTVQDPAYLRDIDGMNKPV
Procedure: as §1

δ-receptor [2] = target: T1, δ-receptor; assay: Function at δ receptor (receptor down regulation assay, HEK 293 cells expressing FLAG-tagged δ-receptor); assay type: cell-based; parameters: FLAG; expressed in transfected cells; host or cells: HEK 293 (G418 selection); details: for Function at δ: compounds of Formula I
Procedure: Receptor down regulation assays: HEK 293 cells expressing the FLAG-tagged δ-receptor were grown to near confluence in 100 mm dishes in DMEM media supplemented with 10% fetal calf serum and 0.25 mg/ml G418. Media was replaced with serum-free media prior to overnight incubation with 10 μM or 20 μM of DOP or control compound. Media was aspirated and cell washed twice with cold PBS. Cell homogenates were collected and further washed trice with 50 mM TRIS-HCl, pH 7.5. Protein concentration was measured using Bio-Rad Bradford reagent and equal amount of protein (50 μg) was used for binding assay. Binding assays were performed using [^3H]diprenorphine as the radioactive ligand. Binding assays were conducted as described above.

mu receptor = target: T4, mu receptor (Mus musculus, UniProt P42866); assay: Opioid receptor binding assay, μ, [3H]DAMGO, HEK 293 cell membranes; parameters: species or system rat; details: compounds of Formula II, Table III
T4 construct: expressed in transfected cells
T4 sequence (P42866 whole entry): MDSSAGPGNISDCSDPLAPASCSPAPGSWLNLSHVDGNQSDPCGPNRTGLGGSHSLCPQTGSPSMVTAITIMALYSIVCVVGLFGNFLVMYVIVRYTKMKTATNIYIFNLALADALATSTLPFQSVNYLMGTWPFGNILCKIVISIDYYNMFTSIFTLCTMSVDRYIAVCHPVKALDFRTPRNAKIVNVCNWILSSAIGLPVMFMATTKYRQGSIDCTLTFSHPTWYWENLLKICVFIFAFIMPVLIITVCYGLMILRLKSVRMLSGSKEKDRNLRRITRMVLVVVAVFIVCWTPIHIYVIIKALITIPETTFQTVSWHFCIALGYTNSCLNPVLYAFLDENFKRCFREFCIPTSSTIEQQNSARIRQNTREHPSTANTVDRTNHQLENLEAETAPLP
Procedure: as §1, with “Opioid” for “Receptor binding assay: Cell membrane preparations were obtained from HEK 293-stable transfectants expressing either the murine δ or μ or the human κ receptor. Opioid”

kappa opioid receptor = target: T5, kappa opioid receptor (Homo sapiens, UniProt P41145); assay: Function at the kappa opioid receptor; details: Table III
T5 construct: expressed in transfected cells
T5 sequence (P41145 whole entry): as the sequence (P41145 whole entry) above

mu opioid receptor = target: T6, mu opioid receptor (Mus musculus, UniProt P42866); assay: Function at the mu opioid receptor; details: Table III
T6 construct: expressed in transfected cells
T6 sequence (P42866 whole entry): as the sequence (P42866 whole entry) above

[3] = inhibition of [3H]U69593, HEK 293 cell membrane, compounds of Formula I, read-out: IC50 (nM) κ
[4] = compounds of Formula II, Table III, read-out: IC50 κ

T1 sequence (P32300 whole entry): as the sequence (P32300 whole entry) above

| Compound | Selectivity κ/δ (delta receptor) | Selectivity μ/δ (delta receptor) | IC50 (human kappa receptor; [3]) | Function at δ (δ-receptor [2]) | IC50 (delta receptor) | IC50 (mu receptor) | IC50 (human kappa receptor; [4]) | also measured |
| --- | --- | --- | --- | --- | --- | --- | --- | --- |
| C=CCN1C[C@H](C)N([C@H](c2ccc(C(=O)N(CC)CC)cc2)c2cccc(OC)c2)C[C@H]1C [SNC80] | – | – | – | – | – | – | – | Function at δ (δ-receptor [1]): Agonist |
| Cc1ccc(-c2nc(CN(C)C)nn2-c2cccc(O)c2)c(C)c1 [DOP110] | 1.3 | 8.9 | 351 ± 95 nM | Agonist | – | – | – | – |
| CN(C)Cc1nc(-c2cccc(C(C)(C)C)c2)n(-c2cccc(O)c2)n1 [DOP106, 3-[5-(3-tert-Butyl-phenyl)-3-dimethylaminomethyl-[1,2,4,]triazole-1-yl]-phenol] | 7 | 50 | 341 ± 20 nM | Agonist | – | – | – | – |
| CN(C)Cc1nc(-c2ccc(C(C)(C)C)cc2)n(-c2cccc(O)c2)n1 [DOP108, 3-[5-(4-tert-Butyl-phenyl)-3-dimethylaminomethyl-[1,2,4,]triazole-1-yl]-phenol] | – | – | 3850 ± 311 nM | Agonist | – | – | – | – |
| CN(C)c1nnc(-c2cccc(O)c2)n1-c1cccc(C(C)(C)C)c1 [DST10S] | – | – | – | – | 114 nM | 118 nM | 23 nM | Function at the kappa opioid receptor (kappa opioid receptor): particularly strong agonist; Function at the mu opioid receptor (mu opioid receptor): moderate to strong antagonist; Function at the delta opioid receptor (δ-receptor [2]; compound of Formula II, Table III): moderate to strong antagonist |
| CN(C)c1nnc(-c2cccc(O)c2)n1-c1ccc(C(C)(C)C)cc1 [DST8S] | – | – | – | – | 2780 nM | 991 nM | 2130 nM | – |
